In publication PMC5844530, “Fosmetpantotenate (RE-024), a phosphopantothenate replacement therapy for pantothenate kinase-associated neurodegeneration: Mechanism of action and efficacy in nonclinical models” (PLoS ONE, 2018):
“And” between values parts separate entries of the source, which are not always exact repeats. Equal values may be shown once.

Columns and labels:
[1] = Pharmacokinetics in whole blood, CD-1 mice; conditions: CD-1 mice, individual animals; for concentration at 0.083 hr / concentration at 0.333 h / concentration at 0.5 h / concentration at 1 h / concentration at 4 h: male, CD-1, mouse, in vivo, po, Compound 1 Whole Blood Conc.; for concentration at 0.5 h / concentration at 1 h: 300 mg/kg, 300 mg/kg RE-024-02 by PO
[2] = Pharmacokinetics in whole blood, Sprague-Dawley rats; conditions: for % Parent AUCAll: Sprague-Dawley rat, metabolite AUCall/Parent AUCall x 100; for Whole Blood Conc. of compound 1: Sprague-Dawley rats; for concentration at 0.167 h / concentration at 0.33 h: Sprague-Dawley, rat, in vivo, po, Whole Blood Conc. of compound 1, Sprague-Dawley rats
Method: The whole blood samples (0.5 mL) were collected into syringes that were prefilled with 2.5 mL of ice-cold 0.1% formic acid in acetonitrile. The volume ratio of the whole blood to 0.1% formic acid in acetonitrile was 1/5 (v/v). Samples were frozen (-70°C) until analyzed by LC-MS/MS.
Standard curves and quality control (QC) samples were prepared fresh on the day of analysis by serial dilution of the standard mixture in quenched whole blood (1 part of blood to 5 parts of 0.1% formic acid in acetonitrile) and centrifuged. […] The frozen study samples were thawed in an ice/water bath and centrifuged. Supernatant (50 μL) from standards, QC samples, and study samples was transferred to a 96-well plate and dried completely under nitrogen. The dried residues were reconstituted with 100 μL of 0.1% formic acid in water containing internal standard (5 ng/mL of ^15N/^13C3-RE-024-02) and analyzed by LC-MS/MS.
LC-MS/MS analysis for blood pharmacokinetic samples: Samples were analyzed using an Agilent 1100 binary pump (Agilent Technologies, Santa Clara, CA, USA), connected to an AB Sciex API 6500 mass spectrometer (SCIEX, Framingham, MA, USA). An electrospray ionization source was used, scanning in the positive mode. […] The chromatography column was a Varian Metasil AQ 120–5 C18 column, 5 μm, 50 x 2.00 mm (Part No. A0530050X020) at ambient temperature, with a 0.5 mL/min flow rate and a 20 μL injection volume. Mobile phase (A) consisted of 0.1% formic acid in water; while mobile phase (B) consisted of 0.1% formic acid in acetonitrile:water (9:1, v/v).
Quantitation of in vivo samples: Peak areas were integrated using Analyst software (AB Sciex, Concord, Ontario, Canada). […] Calibration standards (at a minimum 7 per curve) were fit by linear regression with (1/x^2) weighting. QC samples were used (triplicate) at 3 concentrations for all tandem mass spectrometry (MS/MS) runs.
Pharmacokinetic calculations: PK analysis was performed using Phoenix WinNonlin®, Build 6.3.0.395 (Certara, Princeton, NJ, USA) using a non-compartmental model (PO dose = model 200 for extravascular dosing). […] Post-dose concentrations below the limit of quantitation (BLQ) were omitted from calculation.

## COC(=O)CCNC(=O)[C@@H]1OP(=O)(N[C@@H](C)C(=O)OC)OCC1(C)C (some centres unmarked) [Compound 1]
[1]; 700 mg/kg RE-024-02 by PO, 0.167 hr, LLOQ 1.6 nM, 700 mg/kg
  Compound 1 Whole Blood Conc.: 1672.2 nM and 620 nM and 433.8 nM and 1893.1 nM
[1]; 700 mg/kg RE-024-02 by PO, 0.333 hr, LLOQ 0.6 ng/mL, 700 mg/kg
  Compound 1 Whole Blood Conc.: 63.6 ng/mL
[1]; 700 mg/kg RE-024-02 by PO, 0.333 hr, LLOQ 1.6 nM, 700 mg/kg
  Compound 1 Whole Blood Conc.: 167.2 nM
[1]; 700 mg/kg RE-024-02 by PO, 0.5 hr, LLOQ 0.6 ng/mL, 700 mg/kg
  Compound 1 Whole Blood Conc.: 12 ng/mL and 41.6 ng/mL and 9.4 ng/mL and 22.9 ng/mL
[1]; 700 mg/kg RE-024-02 by PO, 0.5 hr, LLOQ 1.6 nM, 700 mg/kg
  Compound 1 Whole Blood Conc.: 31.6 nM and 109.3 nM and 24.8 nM and 60.1 nM
[1]; 700 mg/kg RE-024-02 by PO, 1 hr, LLOQ 0.6 ng/mL, 700 mg/kg
  Compound 1 Whole Blood Conc.: 48.8 ng/mL and 16 ng/mL and 6.1 ng/mL and 8.8 ng/mL
[1]; 700 mg/kg RE-024-02 by PO, 1 hr, LLOQ 1.6 nM, 700 mg/kg
  Compound 1 Whole Blood Conc.: 128.4 nM and 42.1 nM and 15.9 nM and 23.2 nM
[1]; 700 mg/kg RE-024-02 by PO, 2 hr, LLOQ 0.6 ng/mL, 700 mg/kg
  Compound 1 Whole Blood Conc.: 5.5 ng/mL and 4 ng/mL and 5.6 ng/mL and 10.2 ng/mL
[1]; 700 mg/kg RE-024-02 by PO, 2 hr, LLOQ 1.6 nM, 700 mg/kg
  Compound 1 Whole Blood Conc.: 14.6 nM and 10.4 nM and 14.8 nM and 26.8 nM
[1]; 700 mg/kg RE-024-02 by PO, 4 hr, LLOQ 0.6 ng/mL, 700 mg/kg
  Compound 1 Whole Blood Conc.: BQL
[1]; 700 mg/kg RE-024-02 by PO, 4 hr, LLOQ 1.6 nM, 700 mg/kg
  Compound 1 Whole Blood Conc.: BQL
[1]; 700 mg/kg RE-024-02 by PO, 8 hr, LLOQ 0.6 ng/mL
  Compound 1 Whole Blood Conc.: BQL
[1]; 700 mg/kg RE-024-02 by PO, 8 hr, LLOQ 1.6 nM
  Compound 1 Whole Blood Conc.: BQL
[1]; 100 mg/kg, 100 mg/kg RE-024-02 by PO, LLOQ 0.6 ng/mL
  concentration at 0.083 hr: 1.4 ng/mL
[1]; 100 mg/kg, 100 mg/kg RE-024-02 by PO, LLOQ 1.6 nM
  concentration at 0.083 hr: 3.8 nM
[1]; 100 mg/kg, 100 mg/kg RE-024-02 by PO, 0.333 hr, LLOQ 0.6 ng/mL
  concentration at 0.333 h: 0.8 ng/mL
[1]; 100 mg/kg, 100 mg/kg RE-024-02 by PO, 0.333 hr, LLOQ 1.6 nM
  concentration at 0.333 h: 2 nM
[1]; 0.5 hr, LLOQ 0.6 ng/mL
  concentration at 0.5 h: 5 ng/mL
[1]; 0.5 hr, LLOQ 1.6 nM
  concentration at 0.5 h: 13.1 nM
[1]; 1 hr, LLOQ 0.6 ng/mL
  concentration at 1 h: 0.8 ng/mL
[1]; 1 hr, LLOQ 1.6 nM
  concentration at 1 h: 2.1 nM
[1]; 700 mg/kg, 700 mg/kg RE-024-02 by PO, 0.333 hr, LLOQ 0.6 ng/mL
  concentration at 0.333 h: 109 ng/mL
[1]; 700 mg/kg, 700 mg/kg RE-024-02 by PO, 0.333 hr, LLOQ 1.6 nM
  concentration at 0.333 h: 286 nM
[1]; 700 mg/kg, 700 mg/kg RE-024-02 by PO, 4 hr, LLOQ 0.6 ng/mL
  concentration at 4 h: 0.8 ng/mL
[1]; 700 mg/kg, 700 mg/kg RE-024-02 by PO, 4 hr, LLOQ 1.6 nM
  concentration at 4 h: 2.1 nM
[2]; 300 mg/kg PO
  % Parent AUCAll: 39%
[2]; 700 mg/kg PO
  % Parent AUCAll: 22%
[2]; single 100 mg/kg RE-024-02 PO, time 0.5, LLOQ 0.60 ng/mL
  Whole Blood Conc. of compound 1: BQL
[2]; single 100 mg/kg RE-024-02 PO, time 0.5, LLOQ 1.58 nM
  Whole Blood Conc. of compound 1: BQL
[2]; single 100 mg/kg RE-024-02 PO, time 1, LLOQ 0.60 ng/mL
  Whole Blood Conc. of compound 1: BQL
[2]; single 100 mg/kg RE-024-02 PO, time 1, LLOQ 1.58 nM
  Whole Blood Conc. of compound 1: BQL
[2]; single 100 mg/kg RE-024-02 PO, time 2, LLOQ 0.60 ng/mL
  Whole Blood Conc. of compound 1: BQL
[2]; single 100 mg/kg RE-024-02 PO, time 2, LLOQ 1.58 nM
  Whole Blood Conc. of compound 1: BQL
[2]; single 100 mg/kg RE-024-02 PO, time 4, LLOQ 0.60 ng/mL
  Whole Blood Conc. of compound 1: BQL
[2]; single 100 mg/kg RE-024-02 PO, time 4, LLOQ 1.58 nM
  Whole Blood Conc. of compound 1: BQL
[2]; single 100 mg/kg RE-024-02 PO, time 8, LLOQ 0.60 ng/mL
  Whole Blood Conc. of compound 1: BQL
[2]; single 100 mg/kg RE-024-02 PO, time 8, LLOQ 1.58 nM
  Whole Blood Conc. of compound 1: BQL
[2]; single 300 mg/kg RE-024-02 PO, time 0.33, LLOQ 0.60 ng/mL, 300 mg/kg
  Whole Blood Conc. of compound 1: 41.34 ng/mL and 21.6 ng/mL
[2]; single 300 mg/kg RE-024-02 PO, time 0.33, LLOQ 1.58 nM, 300 mg/kg
  Whole Blood Conc. of compound 1: 108.7 nM and 56.79 nM
[2]; single 300 mg/kg RE-024-02 PO, time 2, LLOQ 0.60 ng/mL
  Whole Blood Conc. of compound 1: BQL
[2]; single 300 mg/kg RE-024-02 PO, time 2, LLOQ 1.58 nM
  Whole Blood Conc. of compound 1: BQL
[2]; single 300 mg/kg RE-024-02 PO, time 4, LLOQ 0.60 ng/mL
  Whole Blood Conc. of compound 1: BQL
[2]; single 300 mg/kg RE-024-02 PO, time 4, LLOQ 1.58 nM
  Whole Blood Conc. of compound 1: BQL
[2]; single 300 mg/kg RE-024-02 PO, time 8, LLOQ 0.60 ng/mL
  Whole Blood Conc. of compound 1: BQL
[2]; single 300 mg/kg RE-024-02 PO, time 8, LLOQ 1.58 nM
  Whole Blood Conc. of compound 1: BQL
[2]; single 700 mg/kg RE-024-02 PO, time 8, LLOQ 0.60 ng/mL
  Whole Blood Conc. of compound 1: BQL
[2]; single 700 mg/kg RE-024-02 PO, time 8, LLOQ 1.58 nM
  Whole Blood Conc. of compound 1: BQL
[2]; 100 mg/kg, single 100 mg/kg RE-024-02 PO, time 0.167, LLOQ 0.60 ng/mL
  concentration at 0.167 h: 3.88 ng/mL
[2]; 100 mg/kg, single 100 mg/kg RE-024-02 PO, time 0.167, LLOQ 1.58 nM
  concentration at 0.167 h: 10.2 nM
[2]; 100 mg/kg, single 100 mg/kg RE-024-02 PO, time 0.33, LLOQ 0.60 ng/mL
  concentration at 0.33 h: 1.21 ng/mL
[2]; 100 mg/kg, single 100 mg/kg RE-024-02 PO, time 0.33, LLOQ 1.58 nM
  concentration at 0.33 h: 3.18 nM
[2]; 300 mg/kg, single 300 mg/kg RE-024-02 PO, time 0.33, LLOQ 0.60 ng/mL
  concentration at 0.33 h: 22.6 ng/mL
[2]; 300 mg/kg, single 300 mg/kg RE-024-02 PO, time 0.33, LLOQ 1.58 nM
  concentration at 0.33 h: 59.3 nM
